Data reported in US20050209278A1, “Piperidinyl- and piperazinyl-sulfonylmethyl hydroxamic acids and their use as protease inhibitors” (priority 2002, published 2005).
pKi: −log10 of the molar value. Like-named read-outs stand apart in the source and are kept apart here.

Experiments:
[1] = molecular target: T1, MMP-14 (Homo sapiens, UniProt P50281); assay: In vitro MMP inhibition, Ki determination (fluorogenic substrate II); type: biochemical; conditions: read-out: MMP-14 Ki
T1 construct: The catalytic domain enzyme was expressed in E. coli inclusion bodies, solubilized in urea; made in house
How it was run: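 E. coli-expressed, refolded MMP-14 catalytic domain, activated with APMA or trypsin, in 100 mM Tris-HCl pH 7.5, 100 mM NaCl, 10 mM CaCl2, 0.05% Brij-type detergent. Apparent Ki by Morrison-equation regression of velocity vs inhibitor and enzyme concentration.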

[2] = molecular target: T2, MMP-2 (Homo sapiens, UniProt P08253); assay: as above; type: biochemical; conditions: read-out: MMP-2 Ki
T2 construct: made in house; host or cells: MMP-2-transfected p2AHT2 cells
T2 sequence (P08253 110-660): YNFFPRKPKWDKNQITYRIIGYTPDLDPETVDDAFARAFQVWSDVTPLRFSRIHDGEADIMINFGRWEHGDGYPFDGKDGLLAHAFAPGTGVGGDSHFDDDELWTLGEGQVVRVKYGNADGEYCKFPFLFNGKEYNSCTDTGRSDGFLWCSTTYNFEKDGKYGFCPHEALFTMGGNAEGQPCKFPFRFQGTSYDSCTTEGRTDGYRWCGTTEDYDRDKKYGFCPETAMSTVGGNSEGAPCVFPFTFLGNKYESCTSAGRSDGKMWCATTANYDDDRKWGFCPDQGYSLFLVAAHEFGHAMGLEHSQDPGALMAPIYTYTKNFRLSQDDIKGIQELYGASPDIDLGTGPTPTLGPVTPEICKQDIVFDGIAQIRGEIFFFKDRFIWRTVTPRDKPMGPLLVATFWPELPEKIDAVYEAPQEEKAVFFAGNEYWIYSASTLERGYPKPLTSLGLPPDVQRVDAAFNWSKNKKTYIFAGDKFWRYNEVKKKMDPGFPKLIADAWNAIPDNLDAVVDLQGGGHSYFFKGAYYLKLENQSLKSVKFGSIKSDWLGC

Structure (SMILES)	pKi ([1]; value not in parenthesis)	pKi ([2]; value not in parenthesis)	pKi ([1]; value outside parentheses)	pKi ([2]; value outside parentheses)
O=C(NO)C1(S(=O)(=O)N2CCN(c3ncc(-c4ccc(Cl)cc4)cn3)CC2)CCOCC1 [Example 66]	5.95	8.60	–	–
CCCCc1cnc(N2CCN(S(=O)(=O)C3(C(=O)NO)CCOCC3)CC2)nc1 [Example 105]	5.78	8.53	–	–
CCCCc1ccc(N2CCN(S(=O)(=O)C3(C(=O)NO)CCOCC3)CC2)nc1 [Example 168]	6.27	9.82	–	–
CCc1ccc(-c2ccc(C3CCN(S(=O)(=O)C4(C(=O)NO)CCOCC4)CC3)nc2)cc1 [Example 393]	–	–	6.71	8.65
CCCCc1ccc(C2CCN(S(=O)(=O)C3(C(=O)NO)CCN(CCOC)CC3)CC2)nc1 [Example 397]	–	–	5.53	9.16
O=C(NO)C1(S(=O)(=O)N2CCC(c3ccc(OCc4ccccc4)cn3)CC2)CCOCC1 [Example 398]	–	–	6.29	8.88
N#Cc1ccc(-c2cnc(N3CCN(S(=O)(=O)C4(C(=O)NO)CCOCC4)CC3)s2)cc1 [Example 399]	–	–	8.01	10.30
CCCC#Cc1cnc(N2CCN(S(=O)(=O)C3(C(=O)NO)CCOCC3)CC2)s1 [Example 400]	–	–	6.14	9.15
CCCCCC/C=C\C1CCN(S(=O)(=O)C2(C(=O)NO)CCOCC2)CC1 [Example 401]	–	–	5.57	7.89
CCCCCC/C=C/C1CCN(S(=O)(=O)C2(C(=O)NO)CCOCC2)CC1 [Example 402]	–	–	–	9.08
O=C(NO)C1(S(=O)(=O)N2CCC(COCc3ccc(C(F)(F)F)cc3)CC2)CCOCC1 [Example 403]	–	–	6.89	8.30
O=C(NO)C1(S(=O)(=O)N2CCC(COCc3ccc(OC(F)(F)F)cc3)CC2)CCOCC1 [Example 404]	–	–	7.14	8.85
O=C(NO)C1(S(=O)(=O)N2CCC(COCc3ccc(SC(F)(F)F)cc3)CC2)CCOCC1 [Example 405]	–	–	7.02	8.90
CCCCCCCOC1CCN(S(=O)(=O)C2(C(=O)NO)CCOCC2)CC1 [Example 406]	–	–	5.92	8.75
O=C(NO)C1(S(=O)(=O)N2CCC(c3ccc(-c4cccs4)c(F)c3)CC2)CCOCC1 [Example 407]	–	–	5.52	9.44

More lines, now with the values ahead:

pKi ([1]; value not in parenthesis)	pKi ([2]; value not in parenthesis)	pKi ([1]; value outside parentheses)	pKi ([2]; value outside parentheses)	Structure (SMILES)
–	–	5.98	8.19	O=C(NO)C1(S(=O)(=O)N2CCC(c3ccc(N4CCCC4)cn3)CC2)CCOCC1 [Example 408]
–	–	5.75	7.61	O=C(NO)C1(S(=O)(=O)N2CCC(c3ccc(-c4ccccn4)cn3)CC2)CCOCC1 [Example 409]
–	–	5.87	9.26	CCCCOc1ccc(C2CCN(S(=O)(=O)C3(C(=O)NO)CCOCC3)CC2)nc1 [Example 410]
–	–	< 5.00	7.82	CCC(F)(F)CCc1ccc(C2CCN(S(=O)(=O)C3(C(=O)NO)CCOCC3)CC2)cn1 [Example 411]
–	–	< 5.00	< 5.00	Cc1ccc(-c2csc(N3CCN(S(=O)(=O)C4(C(=O)NO)CCOCC4)CC3)n2)cc1 [Example 412]
–	–	< 5.00	5.22	Cc1cccc(-c2csc(N3CCN(S(=O)(=O)C4(C(=O)NO)CCOCC4)CC3)n2)c1 [Example 413]
–	–	< 5.00	5.54	O=C(NO)C1(S(=O)(=O)N2CCN(c3nc(-c4ccccc4)cs3)CC2)CCOCC1 [Example 415]
–	–	6.30	8.68	Cc1ccc(-c2ccc(C3CCN(S(=O)(=O)C4(C(=O)NO)CCOCC4)CC3)nc2)s1 [Example 416]
–	–	5.89	8.38	O=C(NO)C1(S(=O)(=O)N2CCC(c3ccc(-c4cccc(F)c4)cn3)CC2)CCOCC1 [Example 417]
–	–	5.27	9.01	O=C(NO)C1(S(=O)(=O)N2CCC(c3ccc(OCCC(F)(F)F)cn3)CC2)CCOCC1 [Example 418]
–	–	< 5.00	7.55	O=C(NO)C1(S(=O)(=O)N2CCN(c3ccc(-c4nn[nH]n4)cc3)CC2)CCOCC1 [Example 419]
–	–	< 5.00	6.74	CCCCc1ccc(C2(O)CCN(S(=O)(=O)C3(C(=O)NO)CCOCC3)CC2)nc1 [Example 420]
